Values quoted from earlier work, collected in patent publication US9738710B2, “Method of treating a patient for pain by administering an anti-ion channel antibody” (UCB Biopharma SPRL, priority 2009, dated 2017).
Where two headings read alike, the source gives them in different places.

Tests used:
[1] = molecular target: T1, hNav1.5 (Homo sapiens, UniProt Q14524); conditions: read-out: FRET-based Assay hNav1.5
[2] = molecular target: T2, hNav1.7 (Homo sapiens, UniProt Q15858); conditions: read-out: FRET-based Assay hNav1.7
T2 sequence (Q15858 whole entry): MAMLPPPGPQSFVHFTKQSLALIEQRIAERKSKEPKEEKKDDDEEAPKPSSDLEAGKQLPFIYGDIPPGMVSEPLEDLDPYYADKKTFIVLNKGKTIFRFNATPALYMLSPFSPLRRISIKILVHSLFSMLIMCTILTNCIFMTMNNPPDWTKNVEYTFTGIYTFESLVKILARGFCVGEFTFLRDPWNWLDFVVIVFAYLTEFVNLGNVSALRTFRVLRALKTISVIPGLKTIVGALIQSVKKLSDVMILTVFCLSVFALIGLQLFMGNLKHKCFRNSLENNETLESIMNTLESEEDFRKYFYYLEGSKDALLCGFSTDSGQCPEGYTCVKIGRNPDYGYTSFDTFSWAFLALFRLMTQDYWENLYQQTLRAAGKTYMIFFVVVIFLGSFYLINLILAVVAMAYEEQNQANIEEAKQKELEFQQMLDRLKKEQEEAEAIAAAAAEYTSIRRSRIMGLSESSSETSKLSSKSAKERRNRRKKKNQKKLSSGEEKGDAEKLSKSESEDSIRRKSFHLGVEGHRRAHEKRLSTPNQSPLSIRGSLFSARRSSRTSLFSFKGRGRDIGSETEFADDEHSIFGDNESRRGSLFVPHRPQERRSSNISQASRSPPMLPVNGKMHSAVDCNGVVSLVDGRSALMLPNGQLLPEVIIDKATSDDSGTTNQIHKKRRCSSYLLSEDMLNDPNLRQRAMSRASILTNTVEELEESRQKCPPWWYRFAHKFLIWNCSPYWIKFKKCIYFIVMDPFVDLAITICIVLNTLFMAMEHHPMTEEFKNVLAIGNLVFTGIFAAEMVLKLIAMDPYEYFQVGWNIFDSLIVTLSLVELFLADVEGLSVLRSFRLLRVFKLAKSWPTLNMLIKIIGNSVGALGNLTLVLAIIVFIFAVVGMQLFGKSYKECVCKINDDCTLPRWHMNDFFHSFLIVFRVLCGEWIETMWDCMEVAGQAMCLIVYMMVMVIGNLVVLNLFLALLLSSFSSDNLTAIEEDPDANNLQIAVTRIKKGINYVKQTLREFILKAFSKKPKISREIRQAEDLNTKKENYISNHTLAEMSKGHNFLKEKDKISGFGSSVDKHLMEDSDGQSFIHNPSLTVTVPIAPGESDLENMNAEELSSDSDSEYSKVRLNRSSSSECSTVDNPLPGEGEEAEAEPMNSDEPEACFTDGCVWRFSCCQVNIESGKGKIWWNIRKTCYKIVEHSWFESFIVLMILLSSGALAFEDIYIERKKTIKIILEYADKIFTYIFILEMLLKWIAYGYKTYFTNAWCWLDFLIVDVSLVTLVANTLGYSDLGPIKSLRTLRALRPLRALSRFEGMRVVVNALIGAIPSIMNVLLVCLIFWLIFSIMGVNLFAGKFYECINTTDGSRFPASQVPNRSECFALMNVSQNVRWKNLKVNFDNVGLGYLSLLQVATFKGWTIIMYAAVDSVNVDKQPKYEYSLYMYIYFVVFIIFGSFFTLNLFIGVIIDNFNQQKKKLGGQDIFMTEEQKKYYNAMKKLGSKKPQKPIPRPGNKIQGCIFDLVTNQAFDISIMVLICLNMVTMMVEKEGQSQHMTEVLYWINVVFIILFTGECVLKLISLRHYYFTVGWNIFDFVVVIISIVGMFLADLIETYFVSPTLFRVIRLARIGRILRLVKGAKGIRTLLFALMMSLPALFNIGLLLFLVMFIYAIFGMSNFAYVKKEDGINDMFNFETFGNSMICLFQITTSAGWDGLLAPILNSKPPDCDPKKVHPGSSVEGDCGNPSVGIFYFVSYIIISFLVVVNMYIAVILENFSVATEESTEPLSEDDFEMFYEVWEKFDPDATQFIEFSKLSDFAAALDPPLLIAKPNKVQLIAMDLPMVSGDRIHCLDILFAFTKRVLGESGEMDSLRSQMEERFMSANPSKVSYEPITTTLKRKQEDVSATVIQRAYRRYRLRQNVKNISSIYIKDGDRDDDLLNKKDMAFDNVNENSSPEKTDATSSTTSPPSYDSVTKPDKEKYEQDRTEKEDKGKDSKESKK

[3] = molecular target: hNav1.8 (Homo sapiens, UniProt Q9Y5Y9); conditions: read-out: FRET-based Assay hNav1.8
[4] = molecular target: T1, hNav1.5; conditions: read-out: Electrophysiology hNav1.5
[5] = molecular target: T2, hNav1.7; conditions: read-out: Electrophysiology hNav1.7
[6] = neuropathic pain patients (Dworkin, 2002)

T1 sequence (Q14524 whole entry): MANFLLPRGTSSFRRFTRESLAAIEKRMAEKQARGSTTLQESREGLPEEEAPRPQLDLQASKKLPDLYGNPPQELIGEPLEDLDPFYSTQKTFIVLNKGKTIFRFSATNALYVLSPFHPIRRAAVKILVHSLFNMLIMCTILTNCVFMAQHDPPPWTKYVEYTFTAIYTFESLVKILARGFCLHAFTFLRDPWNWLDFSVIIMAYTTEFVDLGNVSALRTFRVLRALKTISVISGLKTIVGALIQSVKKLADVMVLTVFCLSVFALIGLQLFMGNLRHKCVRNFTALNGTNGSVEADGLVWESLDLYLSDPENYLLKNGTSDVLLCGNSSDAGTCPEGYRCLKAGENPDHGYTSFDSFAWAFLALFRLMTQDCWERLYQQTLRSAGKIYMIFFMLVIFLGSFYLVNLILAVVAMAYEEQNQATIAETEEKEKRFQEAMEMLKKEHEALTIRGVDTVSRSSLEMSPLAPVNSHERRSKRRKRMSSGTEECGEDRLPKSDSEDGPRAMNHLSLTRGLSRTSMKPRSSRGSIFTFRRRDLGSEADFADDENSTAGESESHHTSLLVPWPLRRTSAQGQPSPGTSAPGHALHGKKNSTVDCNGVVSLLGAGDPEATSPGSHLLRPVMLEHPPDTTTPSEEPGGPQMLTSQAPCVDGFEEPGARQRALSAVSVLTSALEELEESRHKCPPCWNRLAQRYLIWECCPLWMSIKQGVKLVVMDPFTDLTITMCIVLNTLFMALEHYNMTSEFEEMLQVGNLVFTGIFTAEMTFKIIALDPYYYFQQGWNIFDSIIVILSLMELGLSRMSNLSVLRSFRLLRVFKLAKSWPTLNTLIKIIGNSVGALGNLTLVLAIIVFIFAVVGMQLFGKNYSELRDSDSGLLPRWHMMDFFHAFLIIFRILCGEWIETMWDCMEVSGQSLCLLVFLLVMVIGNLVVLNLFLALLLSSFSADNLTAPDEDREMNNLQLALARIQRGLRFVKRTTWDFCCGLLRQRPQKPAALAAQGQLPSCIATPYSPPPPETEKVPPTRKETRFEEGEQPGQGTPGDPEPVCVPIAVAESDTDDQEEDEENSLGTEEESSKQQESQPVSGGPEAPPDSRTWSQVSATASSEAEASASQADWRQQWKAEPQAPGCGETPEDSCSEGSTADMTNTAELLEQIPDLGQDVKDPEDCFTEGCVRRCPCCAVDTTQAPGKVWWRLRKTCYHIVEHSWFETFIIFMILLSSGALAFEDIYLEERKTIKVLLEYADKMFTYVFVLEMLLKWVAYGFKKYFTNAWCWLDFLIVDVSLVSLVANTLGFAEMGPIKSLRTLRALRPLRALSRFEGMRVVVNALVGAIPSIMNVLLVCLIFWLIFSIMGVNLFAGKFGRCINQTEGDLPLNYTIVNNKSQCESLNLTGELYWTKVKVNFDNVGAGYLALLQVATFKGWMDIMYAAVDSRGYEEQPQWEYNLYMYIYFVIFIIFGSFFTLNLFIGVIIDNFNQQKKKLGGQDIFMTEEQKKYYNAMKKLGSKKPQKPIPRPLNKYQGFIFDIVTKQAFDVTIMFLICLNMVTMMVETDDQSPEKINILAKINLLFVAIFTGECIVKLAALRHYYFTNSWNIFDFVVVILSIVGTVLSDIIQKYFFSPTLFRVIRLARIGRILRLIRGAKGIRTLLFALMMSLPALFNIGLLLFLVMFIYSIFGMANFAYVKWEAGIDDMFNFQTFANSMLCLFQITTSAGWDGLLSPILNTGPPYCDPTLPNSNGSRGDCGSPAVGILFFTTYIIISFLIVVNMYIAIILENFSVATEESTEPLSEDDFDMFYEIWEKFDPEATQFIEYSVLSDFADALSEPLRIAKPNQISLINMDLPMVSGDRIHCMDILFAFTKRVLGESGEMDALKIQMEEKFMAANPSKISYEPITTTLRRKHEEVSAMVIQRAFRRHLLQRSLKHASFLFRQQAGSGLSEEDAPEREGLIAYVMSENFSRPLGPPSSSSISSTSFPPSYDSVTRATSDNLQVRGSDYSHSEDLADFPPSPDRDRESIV

| Compound | IC50 [1] | IC50 [2] | IC50 [3] | IC50 [4] | IC50 [5] | reduction of pain [6] | share of patients with that pain reduction [6] |
| --- | --- | --- | --- | --- | --- | --- | --- |
| CC(C)N1C(=O)C(NC(=O)C(Cc2ccccc2F)NC(=O)c2ccc(F)cc2C(F)(F)F)CCc2cc(Cl)ccc21 [N—[(R)-1-(R)-7-chloro-1-isopropyl-2-oxo-2,3,4,5-tetrahydro-1H-benzo[b]azepine-3-ylcarbamoyl)-2-(2-fluorophenyl)-ethyl]-4-fluoro-2-trifluoromethyl-benzamide] | 180 nM | 30 nM | 300 nM | 4300 nM | 550 nM |  |  |
| NCC1(CC(=O)O)CCCCC1 [gabapentin] |  |  |  |  |  | ≤ 50% | about 40% |
